Tests used:
Miro1 = experiment: Anti-Ac-Lys immunoprecipitation of Miro1 from DRG lysates; type: cell-based, rat
Experimental: Protein acetylome profiles from nonneuronal cells have reported acetylation of Miro1/2 and Milton 1/2 but not of Syntaphilin (Choudhary et al., 2009; Lundby et al., 2012; Wagner et al., 2012).
DRG neurons were lysed in 100 mM KCl, 5 mM MgCl2, 10 mM Hepes, pH 7.4, 1 mM DTT, and 0.5% NP-40 supplemented with lx protease inhibitor cocktail (Roche). The lysates were passed through a 25-gauge needle five times and cleared by centrifugation at 12,000 g for […]. Equal amounts of the supernatants were then incubated with primary antibodies overnight, and immunocomplexes were precipitated with Protein G-Dynabeads (Invitrogen) for an additional 2 h at 4° C. with rotation. A cocktail of rabbit and mouse anti-Ac-Lys antibodies (5 μg each; Cell Signaling; 9441 and 9681) was used directly for analyses of Myc-Miro1 transfected cultures by immunoprecipitation. For analysis of endogenous Miro1 acetylation, the anti-Lys antibody cocktail (5 μg of each) was directly cross-linked to 5 mg of M-270 epoxy beads (Dynabeads) using the Dynabeads antibody coupling kit according to the manufacturer's instructions (Life Technologies; 14311D). […]
For immunoblotting, protein lysates or immunoprecipitates were denatured by boiling in Laemmli sample buffer, fractionated by SDS-PAGE, and transferred to nitrocellulose membranes. […] Signals were detected using ECL Prime (GE Healthcare) after extensive washing.

[1] = system: growth cones of adult DRG neurons; experiment: Growth cone area/size of DRG sensory axons (DIC imaging); type: cell-based, rat
Experimental: HDAC6 inhibition increases growth cone size of sensory axons. Given our previous work showing that HDAC6 inhibition allows axons to grow on MAG and CSPG substrates (Rivieccio et al., 2009; Butler et al., 2010), we asked how inhibition of HDAC6 alters axon growth in cultures of adult dorsal root ganglion (DRG) neurons. […] (A) Quantification of neurite length for dissociated DRGs cultured on laminin with addition of HDAC6 inhibitor TubA (10 μm) versus vehicle control (DMSO) over 1 h is shown as average fold-change relative to vehicle±SEM (n≥95 neurons across three independent experiments; NS by one-way ANOVA with Bonferroni post hoc). (B and C) show representative DIC images of distal axons from DRG neurons cultured as in A are shown (B). 1-h TubA treatment appears to increase growth cone size. Analyses of growth cone area across multiple experiments show a significant increase in area after TubA treatment (C). Values are average fold-change±SEM (n≥26 neurons over at least three culture preparations; ***, P≤0.005 by one-way ANOVA with Bonferroni post hoc; scale bar=5 μm; 40×/1.3 NA objective used). […] Prominent HDAC6 signals are seen in distal axons and growth cones (arrows) regardless of TubA exposure. […]
NF-stained cultures were used for neurite growth analyses. […] The growth cone area was measured using ImageJ software from these annotated DIC images. […]

Question: With `CN1CCc2c(c3ccccc3n2Cc2ccc(C(=O)NO)cc2)C1` [TubA, tubastatin] as the compound, how does the “pull-down efficiency of Miro1 with anti-Ac-Lys antibody cocktail” value (Miro1; 10 μM TubA for 4 h, n=4) read?
Answer: The value was 14.1±2.2%.

Question: What about the “anti-Ac-Lys immunoprecipitated Miro1 band” value (Miro1; treatment with TubA) of the same compound?
Answer: The value was “modestly increasing”.

Question: What about the “time after exposure at which growth cone enlargement was apparent” value ([1]; 10 μM TubA, time-lapse DIC) of the same compound?
Answer: The value was ≤ 10 min.

Question: And the “growth cone size vs vehicle controls” value ([1]; 10 μM, 1 h, laminin)?
Answer: The value was “significantly larger growth cones”.

— patent US20210330756A1, “Acetylation of Miro1” (University of South Carolina, priority 2020, published 2021)
